Measurements reported in patent US20020016299A1, “APOPTOSIS INDUCERS” (priority 1996, published 2002).
*1 amine or outer side, *2 acyl side, *3 side chain or, on linkers, in order; H or OH if unused. Where a SMILES comes first, the peptide text is derived from it. Bridges are numbered along the chain shown (N, C = ends). Roman numbers before positions name the chains, in order. [ ]: non-standard residue; d: D form. Actinocin(9to1) = Cc1c2oc3c(C)ccc(C(=O)[*:1])c3nc-2c(C(=O)[*:2])c(N)c1=O; NMeV = CN[C@H](C(=O)O)C(C)C; Sar = CNCC(=O)O

System: HL-60 (ATCC CL-240)
Test: Apoptosis inducing activity: microscope observation and living cell count of HL-60 culture
Assay type: cell-based
Settings: HL-60 cells; for activity of suppressing the growth of cancer cells: method of Example 1-(4)
Method: Apoptosis inducing activity of the above fraction B and the pure product mentioned in Example 1-(3) was measured as follows. Thus, 0.5 ml of aqueous solution of the fraction B or of said pure product was added to 2.5×10^5 cells/4.5 ml of HL-60 (ATCC CL-240) cultured in an RPMI 1640 medium containing 10% of fetal calf serum and incubated at 37° C. for 48 hours. At the same time, distilled water and an Actinomycin D solution (10 μg/ml) which was known to have an apoptosis inducing activity were added to prepare control samples. Formation of apoptic bodies, contraction of cells and aggregation of nuclei were observed by naked eye under a microscope whereby the living cell numbers were counted. When such phenomena were observed and a reduction in living cell numbers was recognized, it was decided that an apoptosis inducing activity was positive.
Each of the concentrated extracts of Lyophyllum ulmarium was diluted with a 75% or 50% aqueous solution of ethanol. The diluted solution was assayed by an MTT method mentioned in Example 7. […] Thus, it was confirmed that, under the conditions of extracting with a 75% aqueous solution of ethanol and a 50% aqueous solution of ethanol, substances which are active for suppressing the growth of cancer cells were extracted. Further, an apoptosis inducing activity was measured using those concentrated extracts of Lyophyllum ulmarium. Thus, 25 μl of each of the above-mentioned concentrated extracts was used as a sample, ethanol was evaporated therefrom, the residue was added to 2.5×10^5 HL-60 cells/4.5 ml which were incubated in an RPMI 1640 medium containing 10% of fetal calf serum and incubation was conducted at 37° C. for 48 hours. At the same time, control samples were prepared by adding distilled water and an Actinomycin D solution (10 μg/ml) which was known to have an apoptosis inducing activity. Formation of apoptic bodies, contraction of cells and aggregation of nuclei were observed by naked eye under an optical microscope and the numbers of living cells were counted. When such a phenomenon was observed and a reduction in living cell numbers was noted, the sample was judged to have an apoptosis inducing activity.

[1] = 37° C., 48 hours, apoptic bodies, contraction of cells, aggregation of nuclei and reduction in living cell numbers

| Compound | apoptosis inducing activity (Actinomycin D solution (10 μg/ml) added as control sample) | activity of suppressing the growth of cancer cells (37° C., 48 hours) | apoptosis inducing activity [1] |
| --- | --- | --- | --- |
| Cc1c2oc3c(C)ccc(C(=O)N[C@@H]4C(=O)N[C@H](C(C)C)C(=O)N5CCC[C@H]5C(=O)N(C)CC(=O)N(C)[C@@H](C(C)C)C(=O)O[C@@H]4C)c3nc-2c(C(=O)N[C@@H]2C(=O)N[C@H](C(C)C)C(=O)N3CCC[C@H]3C(=O)N(C)CC(=O)N(C)[C@@H](C(C)C)C(=O)O[C@@H]2C)c(N)c1=O [Actinomycin D, reference compound] (I: T[dV]P[Sar][NMeV] / II: T[dV]P[Sar][NMeV]; ester I:1-I:C, II:1-II:C; linker I:N-II:N via Actinocin(9to1)) | apoptosis inducing activity was confirmed | – | – |
| Monogalactosyl diglyceride | – | confirmed | strong apoptosis inducing action |
| digalactosyl diglyceride | – | confirmed | strong apoptosis inducing action |
| monogalactosyl diglyceride | – | confirmed | strong apoptosis inducing action |
